This note sets out measurements from PubChem BioAssay AID328 (DTP/NCI, 2004).

For the assay, the system named is BDF1 mice, P388 leukemia ip, median survival T/C. The assay can be described thus: NCI In Vivo Anticancer Drug Screen. Data for tumor model P388 Leukemia (intraperitoneal) in B6D2F1 (BDF1) mice. Conditions: endpoint: median survival time, higher = longer survival. The essentials:
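Antitumour effect was judged in vivo: survival in drug-treated mice, normalised to that of vehicle-dosed controls, gives the reported T/C.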

Setting [1] is: dose: 12.5 mg/kg/injection, schedule: Q01DX009 (ip), vehicle: saline with Tween-80.
The mark [2] stands for this setting: dose: 50.0 mg/kg/injection, schedule: Q01DX009 (ip), vehicle: saline with Tween-80.
[3] abbreviates: dose: 100.0 mg/kg/injection, schedule: Q01DX009 (ip), vehicle: saline with Tween-80.

Molecules are shown by their SMILES. Several values for one entry are separate records, joined by “and”; a condition that tells them apart may be missing. Identical values can stand only once. Inconclusive results and toxic doses are left out.

In the case of `c1ccc([P+](c2ccccc2)(c2ccccc2)c2ccccc2)cc1`, the T/C reads like this: (dose: 0.06 mg/kg/injection, schedule: Q01DX009 (ip), vehicle: saline) 116 % of control; (dose: 0.09 mg/kg/injection, schedule: Q01DX009 (ip), vehicle: saline) 122 % of control; (dose: 0.13 mg/kg/injection, schedule: Q01DX009 (ip), vehicle: saline) 100 % of control; (dose: 0.2 mg/kg/injection, schedule: Q01DX009 (ip), vehicle: saline) 100 % of control; (dose: 0.3 mg/kg/injection, schedule: Q01DX009 (ip), vehicle: saline) 104 % of control; (dose: 0.4 mg/kg/injection, schedule: Q01DX009 (ip), vehicle: saline) 150 % of control. In addition, the T/C is 165 % of control (dose: 0.41 mg/kg/injection, schedule: Q01DX009 (ip), vehicle: saline); 120 % of control (dose: 0.44 mg/kg/injection, schedule: Q01DX009 (ip), vehicle: saline); 150 % of control and 163 % of control and 170 % of control (dose: 0.62 mg/kg/injection, schedule: Q01DX009 (ip), vehicle: saline); 171 % of control (dose: 0.66 mg/kg/injection, schedule: Q01DX009 (ip), vehicle: saline); 118 % of control (dose: 0.67 mg/kg/injection, schedule: Q04DX003 (ip), vehicle: saline); 150 % of control and 165 % of control (dose: 0.93 mg/kg/injection, schedule: Q01DX009 (ip), vehicle: saline). Further, the T/C was 155 % of control (dose: 1.0 mg/kg/injection, schedule: Q01DX009 (ip), vehicle: Klucel (hydroxypropylcellulose) (HPC)); 180 % of control (dose: 1.0 mg/kg/injection, schedule: Q01DX009 (ip), vehicle: saline); 122 % of control (dose: 1.35 mg/kg/injection, schedule: Q04DX003 (ip), vehicle: saline); 158 % of control (dose: 1.5 mg/kg/injection, schedule: Q01DX009 (ip), vehicle: Klucel (hydroxypropylcellulose) (HPC)); 154 % of control and 164 % of control (dose: 1.5 mg/kg/injection, schedule: Q01DX009 (ip), vehicle: saline); 157 % of control and 163 % of control (dose: 2.0 mg/kg/injection, schedule: Q01DX009 (ip), vehicle: Klucel (hydroxypropylcellulose) (HPC)). Moreover, the T/C was 164 % of control (dose: 2.25 mg/kg/injection, schedule: Q01DX009 (ip), vehicle: saline); 175 % of control (dose: 3.2 mg/kg/injection, schedule: Q01DX009 (ip), vehicle: Klucel (hydroxypropylcellulose) (HPC)); 164 % of control (dose: 4.0 mg/kg/injection, schedule: Q01DX009 (ip), vehicle: Klucel (hydroxypropylcellulose) (HPC)); 158 % of control and 165 % of control (dose: 4.0 mg/kg/injection, schedule: Q04DX003 (ip), vehicle: saline); 89 % of control and 100 % of control (dose: 7.5 mg/kg/injection, schedule: Q01DX009 (ip), vehicle: Klucel (hydroxypropylcellulose) (HPC)).
Take `Oc1ccc2ccccc2c1N=Nc1ccccc1`: the T/C is, setting by setting: (dose: 100.0 mg/kg/injection, schedule: Q01DX009 (ip), vehicle: Klucel (hydroxypropylcellulose) (HPC)) 87 % of control; (dose: 100.0 mg/kg/injection, schedule: Q04DX003 (ip), vehicle: Klucel (hydroxypropylcellulose) (HPC)) 109 % of control; (dose: 200.0 mg/kg/injection, schedule: Q01DX009 (ip), vehicle: Klucel (hydroxypropylcellulose) (HPC)) 104 % of control; (dose: 200.0 mg/kg/injection, schedule: Q04DX003 (ip), vehicle: Klucel (hydroxypropylcellulose) (HPC)) 104 % of control; (dose: 400.0 mg/kg/injection, schedule: Q01DX009 (ip), vehicle: Klucel (hydroxypropylcellulose) (HPC)) 91 % of control; (dose: 400.0 mg/kg/injection, schedule: Q04DX003 (ip), vehicle: Klucel (hydroxypropylcellulose) (HPC)) 104 % of control.
Turning to `O=C1N(Cl)C(=O)C(c2ccc(C(F)(F)F)cc2)(c2ccc(C(F)(F)F)cc2)N1Cl`, the T/C is, setting by setting: (dose: 1.56 mg/kg/injection, schedule: Q01DX009 (ip), vehicle: saline with Tween-80) 104 % of control; (dose: 3.12 mg/kg/injection, schedule: Q01DX009 (ip), vehicle: saline with Tween-80) 100 % of control; (dose: 6.25 mg/kg/injection, schedule: Q01DX009 (ip), vehicle: saline with Tween-80) 100 % of control; under setting [1], 109 % of control; (dose: 100.0 mg/kg/injection, schedule: Q04DX003 (ip), vehicle: saline with Tween-80) 100 % of control; (dose: 200.0 mg/kg/injection, schedule: Q04DX003 (ip), vehicle: saline with Tween-80) 109 % of control.
`CNC(=S)N(C)C`: the T/C is 95 % of control (dose: 50.0 mg/kg/injection, schedule: Q01DX001 (ip), vehicle: saline); 103 % of control and 104 % of control (dose: 100.0 mg/kg/injection, schedule: Q01DX001 (ip), vehicle: saline); 95 % of control and 104 % of control (dose: 200.0 mg/kg/injection, schedule: Q01DX001 (ip), vehicle: saline); 91 % of control (dose: 400.0 mg/kg/injection, schedule: Q01DX001 (ip), vehicle: saline).
Regarding `C=C(C)CSC(=S)NNc1ccccc1`, the T/C runs as follows: (dose: 37.5 mg/kg/injection, schedule: Q04DX003 (ip), vehicle: acetone) 109 % of control; (dose: 56.25 mg/kg/injection, schedule: Q01DX009 (ip), vehicle: Klucel (hydroxypropylcellulose) (HPC)) 115 % of control; (dose: 75.0 mg/kg/injection, schedule: Q04DX003 (ip), vehicle: acetone) 100 % of control; (dose: 100.0 mg/kg/injection, schedule: Q01DX001 (ip), vehicle: alcohol) 100 % of control; (dose: 112.5 mg/kg/injection, schedule: Q01DX009 (ip), vehicle: Klucel (hydroxypropylcellulose) (HPC)) 110 % of control; (dose: 150.0 mg/kg/injection, schedule: Q01DX009 (ip), vehicle: Klucel (hydroxypropylcellulose) (HPC)) 115 % of control. Further, the T/C (dose: 150.0 mg/kg/injection, schedule: Q01DX009 (ip), vehicle: alcohol) is 109 % of control; the T/C (dose: 150.0 mg/kg/injection, schedule: Q04DX003 (ip), vehicle: acetone) was 104 % of control; the T/C (dose: 200.0 mg/kg/injection, schedule: Q01DX001 (ip), vehicle: alcohol) is 104 % of control; the T/C (dose: 225.0 mg/kg/injection, schedule: Q01DX009 (ip), vehicle: Klucel (hydroxypropylcellulose) (HPC)) is 115 % of control; the T/C (dose: 225.0 mg/kg/injection, schedule: Q04DX003 (ip), vehicle: alcohol) was 100 % of control; the T/C (dose: 335.0 mg/kg/injection, schedule: Q01DX009 (ip), vehicle: Klucel (hydroxypropylcellulose) (HPC)) was 115 % of control. Further, the T/C (dose: 340.0 mg/kg/injection, schedule: Q04DX003 (ip), vehicle: alcohol) was 95 % of control.
In the case of `CCOC(=O)Cc1csc(NN=C(C)C)n1`, the T/C runs as follows: (dose: 50.0 mg/kg/injection, schedule: Q01DX009 (ip), vehicle: saline) 108 % of control; (dose: 100.0 mg/kg/injection, schedule: Q01DX009 (ip), vehicle: saline) 110 % of control.
Consider `CCCCCCCCCCCC[n+]1cccc2ccccc21`, for which the T/C reads like this: (dose: 0.15 mg/kg/injection, schedule: Q01DX009 (ip), vehicle: saline) 100 % of control; (dose: 0.17 mg/kg/injection, schedule: Q04DX003 (ip), vehicle: saline) 118 % of control; (dose: 0.34 mg/kg/injection, schedule: Q01DX009 (ip), vehicle: saline) 90 % of control and 122 % of control; (dose: 0.35 mg/kg/injection, schedule: Q01DX009 (ip), vehicle: saline) 163 % of control; (dose: 0.35 mg/kg/injection, schedule: Q04DX003 (ip), vehicle: saline) 122 % of control; (dose: 0.7 mg/kg/injection, schedule: Q01DX009 (ip), vehicle: saline) 157 % of control. Moreover, the T/C (dose: 0.7 mg/kg/injection, schedule: Q04DX003 (ip), vehicle: saline) is 118 % of control.
Consider `Nc1nc(N)c2cc(S(=O)(=O)c3cccc(C(F)(F)F)c3)ccc2n1`, for which the T/C under setting [2] was 95 % of control; the T/C under setting [3] was 111 % of control; the T/C (dose: 200.0 mg/kg/injection, schedule: Q01DX009 (ip), vehicle: saline with Tween-80) is 120 % of control.
With `C=CC(=O)NCCCCC(N)C(=O)O` (stereo unspecified), the T/C is 108 % of control under setting [1]; 106 % of control (dose: 25.0 mg/kg/injection, schedule: Q01DX009 (ip), vehicle: saline with Tween-80); 113 % of control under setting [2].
`CCOC(=O)Oc1ccc(/C=N/NC(N)=S)nc1`: the T/C was 169 % of control under setting [2] and 178 % of control under setting [3].
Consider `CC1CCCC2(CN=C(Nc3ccccc3)O2)C1` (stereo unspecified), for which the T/C runs as follows: (dose: 100.0 mg/kg/injection, schedule: Q01DX001 (ip), vehicle: Klucel (hydroxypropylcellulose) (HPC)) 99 % of control; (dose: 200.0 mg/kg/injection, schedule: Q01DX001 (ip), vehicle: Klucel (hydroxypropylcellulose) (HPC)) 114 % of control.
